Laboratory results from PubChem BioAssay (NCI).
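Test compounds were applied to cells in 96-well plates for 48 hours at 5 doses. TGI marks complete inhibition of growth.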

How the values were obtained:
Test in all cases: growth of human tumour cells (NCI), 48 h
786-0 renal = test system: 786-0 renal
A549 NSCLC = test system: A549 NSCLC
ACHN renal = test system: ACHN renal
CAKI-1 renal = test system: CAKI-1 renal
COLO 205 colon = test system: COLO 205 colon
DLD-1 colon = test system: DLD-1 colon
DMS 114 small cell lung = test system: DMS 114 small cell lung
DMS 273 small cell lung = test system: DMS 273 small cell lung
EKVX NSCLC = test system: EKVX NSCLC
HCC-2998 colon = test system: HCC-2998 colon
HCT-116 colon = test system: HCT-116 colon
HCT-15 colon = test system: HCT-15 colon
HOP-18 NSCLC = test system: HOP-18 NSCLC
HOP-92 NSCLC = test system: HOP-92 NSCLC
IGROV1 ovarian = test system: IGROV1 ovarian
K-562 leukemia = test system: K-562 leukemia
KM12 colon = test system: KM12 colon
KM20L2 colon = test system: KM20L2 colon
LOX IMVI melanoma = test system: LOX IMVI melanoma
LXFL 529 NSCLC = test system: LXFL 529 NSCLC
M14 melanoma = test system: M14 melanoma
M19-MEL melanoma = test system: M19-MEL melanoma
MALME-3M melanoma = test system: MALME-3M melanoma
MOLT-4 leukemia = test system: MOLT-4 leukemia
NCI-H226 lung = test system: NCI-H226 lung
NCI-H23 lung = test system: NCI-H23 lung
NCI-H460 lung = test system: NCI-H460 lung
NCI-H522 lung = test system: NCI-H522 lung
OVCAR-3 ovarian = test system: OVCAR-3 ovarian
OVCAR-4 ovarian = test system: OVCAR-4 ovarian
OVCAR-5 ovarian = test system: OVCAR-5 ovarian
OVCAR-8 ovarian = test system: OVCAR-8 ovarian
RPMI-8226 leukemia = test system: RPMI-8226 leukemia
RXF 393 renal = test system: RXF 393 renal
SF-268 CNS = test system: SF-268 CNS
SF-295 CNS = test system: SF-295 CNS
SF-539 CNS = test system: SF-539 CNS
SK-MEL-2 melanoma = test system: SK-MEL-2 melanoma
SK-MEL-28 melanoma = test system: SK-MEL-28 melanoma
SK-MEL-5 melanoma = test system: SK-MEL-5 melanoma
SK-OV-3 ovarian = test system: SK-OV-3 ovarian
SN12C renal = test system: SN12C renal
SNB-19 CNS = test system: SNB-19 CNS
SNB-75 CNS = test system: SNB-75 CNS
SNB-78 CNS = test system: SNB-78 CNS
SR leukemia = test system: SR leukemia
SW-620 colon = test system: SW-620 colon
TK-10 renal = test system: TK-10 renal
U251 CNS = test system: U251 CNS
UACC-257 melanoma = test system: UACC-257 melanoma
UACC-62 melanoma = test system: UACC-62 melanoma
UO-31 renal = test system: UO-31 renal
XF 498 CNS = test system: XF 498 CNS

Measured: TGI

CC1NC(=O)C2=C1C(N)=NC(=O)C2 (stereo not drawn)
> 100 µM: 786-0 renal | A549 NSCLC | ACHN renal | CAKI-1 renal | COLO 205 colon | DLD-1 colon | DMS 114 small cell lung | DMS 273 small cell lung | EKVX NSCLC | HCC-2998 colon | HCT-116 colon | HCT-15 colon | HOP-18 NSCLC | HOP-92 NSCLC | IGROV1 ovarian | K-562 leukemia | KM12 colon | KM20L2 colon | LOX IMVI melanoma | LXFL 529 NSCLC | M14 melanoma | M19-MEL melanoma | MALME-3M melanoma | MOLT-4 leukemia | NCI-H226 lung | NCI-H23 lung | NCI-H460 lung | NCI-H522 lung | OVCAR-3 ovarian | OVCAR-4 ovarian | OVCAR-5 ovarian | OVCAR-8 ovarian | RPMI-8226 leukemia | RXF 393 renal | SF-268 CNS | SF-295 CNS | SF-539 CNS | SK-MEL-2 melanoma | SK-MEL-28 melanoma | SK-MEL-5 melanoma | SK-OV-3 ovarian | SN12C renal | SNB-19 CNS | SNB-75 CNS | SNB-78 CNS | SR leukemia | SW-620 colon | TK-10 renal | U251 CNS | UACC-257 melanoma | UACC-62 melanoma | UO-31 renal | XF 498 CNS
